Experiments:
[1] = target: T1, PXR (Homo sapiens, UniProt O75469); test: PXR reporter (p3A4-luc luciferase) assay in LS180 cells transiently transfected with wild-type PXR; details: for FOLD INDUCTION of PXR reporter luciferase activity: 24 h, over UT
T1 sequence (O75469 1-434): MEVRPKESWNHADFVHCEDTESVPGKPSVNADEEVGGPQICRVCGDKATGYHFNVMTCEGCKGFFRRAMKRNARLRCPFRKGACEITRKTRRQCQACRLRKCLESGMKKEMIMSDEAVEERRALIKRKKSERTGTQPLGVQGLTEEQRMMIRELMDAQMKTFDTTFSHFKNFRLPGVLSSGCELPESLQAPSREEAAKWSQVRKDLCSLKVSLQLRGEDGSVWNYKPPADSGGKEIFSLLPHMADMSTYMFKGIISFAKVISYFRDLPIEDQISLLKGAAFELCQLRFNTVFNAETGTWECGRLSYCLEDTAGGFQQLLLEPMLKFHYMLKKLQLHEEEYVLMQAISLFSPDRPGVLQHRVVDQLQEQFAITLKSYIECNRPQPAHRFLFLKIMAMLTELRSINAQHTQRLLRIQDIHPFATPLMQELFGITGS
Method: Incubations were performed in four technical replicates. After the treatments, cells were lysed and luciferase activity was measured on Tecan Infinite M200 Pro plate reader (Schoeller Instruments, Prague, Czech Republic). The data are expressed as fold induction ± SD of luciferase activity over the control cells (agonistic mode—in the absence of a model ligand) or as a percentage of maximal activation ± SD (antagonistic mode—in the presence of a model ligand). […] For all the transfection experiments, specifically multiplexed transfections, the control wells were mock‐transfected ([…]). However, to exclude non‐specific binding of PXR (or other factors) upstream of the luciferase gene within non‐PXR‐binding elements, we performed pilot experiments in different cell passages (P11, P14, and P17) of LS174T cells using a mock luciferase plasmid (luciferase not containing an upstream PXR‐binding element of the CYP3A4 promoter).

[2] = target: T2, AhR (Homo sapiens, UniProt P35869); test: AhR reporter assay, HepG2 cells stably expressing pCYP1A1 luciferase (AZ-AHR); format: cell-based
T2 construct: endogenous in cells; host or cells: AZ-AHR (HepG2)
T2 sequence (P35869 11-848): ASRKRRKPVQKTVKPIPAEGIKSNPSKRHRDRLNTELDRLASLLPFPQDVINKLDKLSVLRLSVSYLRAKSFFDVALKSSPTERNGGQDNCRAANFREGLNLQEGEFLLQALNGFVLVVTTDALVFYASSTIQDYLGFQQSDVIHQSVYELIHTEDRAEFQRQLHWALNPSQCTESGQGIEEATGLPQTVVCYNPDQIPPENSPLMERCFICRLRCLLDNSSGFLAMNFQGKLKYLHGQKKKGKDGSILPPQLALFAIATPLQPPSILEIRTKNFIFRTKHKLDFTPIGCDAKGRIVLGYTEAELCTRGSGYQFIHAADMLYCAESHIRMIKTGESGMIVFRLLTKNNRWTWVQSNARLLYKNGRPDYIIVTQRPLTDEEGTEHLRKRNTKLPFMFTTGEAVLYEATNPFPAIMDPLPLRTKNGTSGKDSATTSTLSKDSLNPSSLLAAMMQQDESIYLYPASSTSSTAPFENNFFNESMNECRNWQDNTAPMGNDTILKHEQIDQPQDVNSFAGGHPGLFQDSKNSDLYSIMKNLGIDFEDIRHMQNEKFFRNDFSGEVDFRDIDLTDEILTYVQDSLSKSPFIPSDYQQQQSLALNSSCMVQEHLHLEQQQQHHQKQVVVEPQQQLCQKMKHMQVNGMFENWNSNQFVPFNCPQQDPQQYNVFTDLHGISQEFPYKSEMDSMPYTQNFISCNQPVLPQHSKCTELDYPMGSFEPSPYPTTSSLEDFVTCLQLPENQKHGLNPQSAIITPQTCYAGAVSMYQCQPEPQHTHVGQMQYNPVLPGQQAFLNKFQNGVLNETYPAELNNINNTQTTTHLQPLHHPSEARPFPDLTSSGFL
Method: Incubations were performed in four technical replicates.

[3] = AZ-AHR cells, 1 nM, fold vs DMSO
[4] = AZ-AHR cells, 10 nM, fold vs DMSO
[5] = AZ-AHR cells, 100 nM, fold vs DMSO
[6] = AZ-AHR cells, 1µM, fold vs DMSO
[7] = AZ-AHR cells, 10 µM, fold vs DMSO
[8] = LS180, read-out: FOLD INDUCTION of PXR reporter luciferase activity

Row | SMILES | aver (mean luciferase signal of H1-H4) ([1]; 1 nM) | FOLD INDUCTION of PXR reporter luciferase activity ([1]; 1 nM) | aver (mean luciferase signal of H1-H4) ([1]; 10 nM) | FOLD INDUCTION of PXR reporter luciferase activity ([1]; 10 nM) | aver (mean luciferase signal of H1-H4) ([1]; 100 nM) | FOLD INDUCTION of PXR reporter luciferase activity ([1]; 100 nM) | aver (mean luciferase signal of H1-H4) ([1]; 1 uM) | FOLD INDUCTION of PXR reporter luciferase activity ([1]; 1 uM) | aver (mean luciferase signal of H1-H4) ([1]; 10 uM) | FOLD INDUCTION of PXR reporter luciferase activity ([1]; 10 uM) | aver (mean luciferase signal of H1-H4) ([1]; 25 uM) | FOLD INDUCTION of PXR reporter luciferase activity ([1]; 25 uM) | AhR activation (in words) [2] | FOLD INDUCTION (AZ-AHR luciferase) [2, 3] | FOLD INDUCTION (AZ-AHR luciferase) [2, 4] | FOLD INDUCTION (AZ-AHR luciferase) [2, 5] | FOLD INDUCTION (AZ-AHR luciferase) [2, 6] | FOLD INDUCTION (AZ-AHR luciferase) [2, 7] | further results
1 | O=S(=O)(c1ccccc1)n1c(C(O)(Cc2cc3ccccc3[nH]2)c2ccncc2)cc2ccccc21 (racemic) [FKK7] | 4342.5 | 1.1 fold | 4393.8 | 1.2 fold | 6280.8 | 1.7 fold | 60156.8 | 15.8 fold | 84023.3 | 22.1 fold | 80527.0 | 21.2 fold | variable degrees of dose‐dependent AhR activation profiles | 0.746 fold | 0.738 fold | 0.7 fold | 3.6 fold | 75.5 fold | –
2 | O=S(=O)(c1ccccc1)n1c(C(O)Cc2cc3ccccc3[nH]2)cc2ccccc21 (racemic) [FKK8] | 3847.5 | 1.0 fold | 4121.3 | 1.1 fold | 8608.8 | 2.3 fold | 58017.5 | 15.3 fold | 99864.5 | 26.3 fold | 75044.8 | 19.7 fold | variable degrees of dose‐dependent AhR activation profiles | 0.6 fold | 0.7 fold | 1.1 fold | 2.3 fold | 40.8 fold | –
3 | CC#CC(O)(c1ccncc1)c1cc2ccccc2n1S(=O)(=O)c1ccccc1 (racemic) [FKK3] | 5303.8 | 2.5 fold | 3556.8 | 1.7 fold | 7075.5 | 3.3 fold | 50228.8 | 23.5 fold | 65270.5 | 30.5 fold | 57813.0 | 27.0 fold | variable degrees of dose‐dependent AhR activation profiles | 0.8 fold | 0.7 fold | 0.9 fold | 1.1 fold | 5.3 fold | –
4 | Cc1[nH]c2ccccc2c1C(c1c(C)[nH]c2ccccc12)c1c(C)[nH]c2ccccc12 [FKK999, reference compound] | 2509.3 | – | 3525.3 | – | 5905.5 | – | 26021.5 | – | 42646.5 | – | 44375.0 | – | variable degrees of dose‐dependent AhR activation profiles | – | – | – | – | – | aver (mean luciferase signal of H1-H4) ([1]; 50 uM): 44986.8; fold induction at 0.001 µM [1, 8]: 1.39; fold induction at 0.01 µM [1, 8]: 1.95; fold induction at 0.1 µM [1, 8]: 3.27; fold induction at 1 µM [1, 8]: 14.4; fold induction at 10 µM [1, 8]: 23.6; fold induction at 25 µM [1, 8]: 24.5; fold induction at 50 µM [1, 8]: 24.9; PXR activation (in words) ([1]; cell-based transactivation): activated PXR; fold induction at 24 h, 0.001 µM ([2]; human, AZ-AHR cells, 1 nM, fold vs DMSO): 1; fold induction at 24 h, 0.01 µM ([2]; human, AZ-AHR cells, 10 nM, fold vs DMSO): 1; fold induction at 24 h, 0.1 µM ([2]; human, AZ-AHR cells, 100 nM, fold vs DMSO): 3.5; fold induction at 24 h, 1 µM ([2]; human, AZ-AHR cells, 1µM, fold vs DMSO): 10.2; fold induction at 24 h, 10 µM ([2]; human, AZ-AHR cells, 10 µM, fold vs DMSO): 28.2
5 | OC(Cc1cc2ccccc2[nH]1)(c1ccncc1)c1cc2ccccc2[nH]1 (stereo not drawn) [FKK10] | 4648.0 | 1.3 fold | 3990.3 | 1.1 fold | 4278.0 | 1.2 fold | 3689.5 | 1.1 fold | 16756.3 | 4.8 fold | 52110.3 | 15.0 fold | variable degrees of dose‐dependent AhR activation profiles | 0.5 fold | 0.318 fold | 0.8 fold | 1.3 fold | 21.9 fold | –
6 | OC(c1ccncc1)(c1cc2ccccc2[nH]1)c1cc2ccccc2[nH]1 [FKK2] | 2792.0 | 1.3 fold | 2989.5 | 1.4 fold | 3008.8 | 1.4 fold | 7365.5 | 3.4 fold | 41425.5 | 19.4 fold | 32321.0 | 15.1 fold | – | 0.9 fold | 0.9 fold | 2.1 fold | 15.0 fold | 467.5 fold | AhR activation ([2]; 10 μM): > 100 fold

From publication PMC7136958, “Targeting the pregnane X receptor using microbial metabolite mimicry” (EMBO Molecular Medicine, 2020)
